Patent US8394848B2, “Compounds that modulate intracellular calcium” (Calcimedica, Inc., priority 2008, dated 2013)

How the values were obtained:
[1] = molecular target: T1, recombinant human STIM1 and Orai1 (HEK-293 stable cells; JR251) (Homo sapiens, UniProt Q96D31); assay: Fluorescence-based assay of store-operated calcium entry in Orai1/STIM1 stable cells; assay type: cell-based; conditions: 50% inhibition of Peak-Basal signal
T1 construct: c-myc (C); expressed in transfected cells
Experimental: A. Fluorescence-Based Assay of Store-Operated Calcium Entry in Orai1/STIM1 Stable Cells.
Cells stably expressing recombinant human STIM1 and Orai1 were generated by transfecting a human Orai1 expression plasmid (pcDNA3.1-Orai1-cmyc) into HEK-293 cells stably overexpressing human STIM1 (Roos et al. 2005 JCB 169(3): 435-445). Colonies of cells stably expressing both STIM1 and Orai1 proteins were selected and then subcloned by limiting dilution. Cells were cultured at 37° C./6% CO2 in complete medium with 10% FBS and appropriate selection markers.
The day prior to performing the assay Orai1/STIM1 stable cells were plated in 50 μL of complete medium at 90-95% confluence in a 384 well plate. Cells were grown at 37° C./6% CO2 overnight. On the day of the assay, 1.5 μM fluo-4-AM (Invitrogen) in complete medium was added to the cells, which were then incubated for 1 hour at RT. Cells were washed once in Ca^2+-free HBSS (Hank's buffered saline solution) and 35 μl of Ca^2+-free HBSS was added to each well. Test compounds were added to wells in a 10 μL Ca^2+-free HBSS solution, prepared at 4.5× the desired final concentration, and incubated for 30 minutes at RT. The initial baseline fluorescence signal was then measured with a FLIPR^384 (Molecular Devices) plate reader. Calcium entry was initiated by adding 5 μl of 10×CaCl2 (10 mM) in HBSS, and changes in cellular fluorescence were measured with the FLIPR^384 plate reader. In each well, the magnitude of the fluorescence signal as a result of calcium entry into the cell was determined by calculating the difference between the peak fluorescence signal measured after calcium addition and the initial baseline fluorescence signal (designated Peak-Basal). IC50 values were typically calculated as the concentration that inhibited 50% of the Peak-Basal signal (Table A).

[2] = system: RBL-2H3 cells; assay: Fluorescence-based assay of store-operated calcium entry in RBL-2H3 cells; assay type: cell-based; conditions: Rattus norvegicus, 50% inhibition of Upslope, thapsigargin
Experimental: B. Fluorescence-Based Assay of Store-Operated Calcium Entry in RBL-2H3Cells.
RBL-2H3 cells were obtained from ATCC and maintained in complete medium with 10% FBS at 37° C./6% CO2.
The day prior to performing the assay, RBL-2H3 cells are plated in 50 μL of complete medium in a 384 well plate. Cells are grown at 37° C./6% CO2 overnight and grow to 50-60% confluence by the next day. On the assay day, 1.5 μM Fluo-4-AM dye (Invitrogen) in complete medium is added and incubated for 1 hour at RT. Cells are washed twice in Ca^2+-free HBSS buffer and 35 μL Ca^2+-free HBSS buffer is added to each well. 10 μL of a test compound prepared in a Ca^2+-free HBSS solution at 4.5× of the desired concentration is added to a well and incubated for 5 minutes at RT. 10 μL of thapsigargin prepared in a Ca^2+-free HBSS solution at 5.5× of the desired concentration (5.5 uM) is added to each well and incubated for an additional 25 minutes. The initial baseline fluorescence signal is measured with a FLIPR^384 (Molecular Devices) plate reader. 5 μL of 12× calcium in HBSS (12 mM) is added and changes in cellular fluorescence are measured with the FLIPR^384 plate reader. In each well, the change in the fluorescent signal as a function of time due to calcium entry into the cell is determined by calculating the difference between the fluorescent signal measured 7 seconds after calcium addition and the initial baseline fluorescence signal at time zero (t=0). This parameter is designated Upslope. The IC50 value is calculated as the concentration at which 50% of the Upslope is inhibited.

[3] = molecular target: STIM1 and Orai1 in HEK293 cells (Homo sapiens, UniProt Q96D31); conditions: STIM1 and Orai1 co-expression; cited from earlier work
STIM1 and Orai1 in HEK293 cells, sequence (Q96D31 whole entry): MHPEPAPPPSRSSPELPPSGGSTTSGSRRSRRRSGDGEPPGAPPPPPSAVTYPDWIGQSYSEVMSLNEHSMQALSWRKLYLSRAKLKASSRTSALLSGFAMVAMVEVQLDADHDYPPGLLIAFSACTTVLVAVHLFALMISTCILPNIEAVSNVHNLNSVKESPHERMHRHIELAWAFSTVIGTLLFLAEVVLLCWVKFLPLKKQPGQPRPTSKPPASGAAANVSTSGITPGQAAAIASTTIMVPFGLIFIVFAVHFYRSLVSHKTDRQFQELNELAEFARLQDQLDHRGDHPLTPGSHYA

[4] = system: Jurkat cells; conditions: cited from earlier work

T1 sequence (Q96D31 whole entry): as above

Row | Compound | IC50 [1] | IC50 [2] | other results
1 | COc1cc(C)c(-c2csc(NC(=O)c3cc4ccccc4o3)c2C(=O)O)cc1C [H] | ≤ 0.5 µM | ≤ 0.5 µM | –
2 | O=C(Nc1scc(-c2ccc(Cl)cc2)c1C(=O)O)c1cc2nccnc2s1 [X] | ≤ 0.5 µM | ≤ 0.5 µM | –
3 | Cc1ccc(-c2csc(NC(=O)c3cnc4ccccc4n3)c2C(=O)O)c(F)c1F [F] | ≤ 0.5 µM | ≤ 0.5 µM | –
4 | O=C(Nc1scc(-c2ccc(Br)cc2)c1C(=O)O)c1cc2ccccn2n1 [Compound I] | ≤ 0.5 µM | ≤ 0.5 µM | –
5 | COc1cc(C)c(-c2csc(NC(=O)c3cc4ccccc4o3)c2C(=O)O)c(C)c1 [N] | ≤ 0.5 µM | ≤ 0.5 µM | –
6 | O=C(Nc1scc(-c2ccc(Cl)cc2)c1C(=O)O)c1ccc2scnc2c1 [Q] | ≤ 0.5 µM | – | –
7 | O=C(Nc1scc(-c2ccc(Cl)cc2)c1C(=O)O)c1cc(-c2ccccc2)on1 [T] | 0.5 to 1 µM | – | –
8 | O=C(Nc1scc(-c2ccc(Cl)cc2)c1C(=O)O)c1cc2ccccc2nn1 [Y] | 1 to 10 µM | – | –
9 | O=C(Nc1scc(-c2ccc(Cl)cc2)c1C(=O)O)c1cnc2ccccc2n1 [P] | ≤ 0.5 µM | ≤ 0.5 µM | –
10 | O=C(CCc1cccs1)Nc1scc(-c2ccc(Cl)cc2)c1C(=O)O [R] | ≤ 0.5 µM | ≤ 0.5 µM | –
11 | O=C(Nc1scc(-c2ccc(Cl)cc2)c1C(=O)O)c1nc(C2CC2)cs1 [W] | ≤ 0.5 µM | ≤ 0.5 µM | –
12 | O=C(Nc1scc(-c2ccc(Br)cc2)c1C(=O)O)c1nc2cccc(F)c2o1 [B] | ≤ 0.5 µM | ≤ 0.5 µM | –
13 | O=C(Nc1scc(-c2ccc(Cl)cc2)c1C(=O)O)/C(F)=C/c1ccccc1Cl [U] | 1 to 10 µM | – | –
14 | O=C(Nc1scc(-c2ccc(Cl)cc2)c1C(=O)O)c1cc2ccccn2n1 [O] | ≤ 0.5 µM | ≤ 0.5 µM | –
15 | O=C(Nc1scc(-c2ccc(Cl)cc2)c1C(=O)O)c1nc2ccccc2s1 [G] | ≤ 0.5 µM | ≤ 0.5 µM | –
16 | NCCOB(c1ccccc1)c1ccccc1 [2-aminoethoxydiphenylborate] | – | – | block of store-dependent Ca2+ entry [3]: completely blocked
17 | Cc1nnsc1C(=O)Nc1scc(-c2ccc(Br)cc2)c1C(=O)O [A] | 1 to 10 µM | 1 to 10 µM | –
18 | O=C(Nc1scc(-c2ccc(Cl)cc2)c1C(=O)O)c1ccc([N+](=O)[O-])o1 [V] | ≤ 0.5 µM | ≤ 0.5 µM | –
19 | CC(Cc1ccccc1)C(=O)Nc1scc(-c2ccc(Br)cc2)c1C(=O)O (stereo not drawn) [E] | ≤ 0.5 µM | ≤ 0.5 µM | –
20 | O=C(Nc1scc(-c2ccc(Cl)cc2)c1C(=O)O)c1ccc(C(F)(F)F)nc1 [M] | 1 to 10 µM | – | –
21 | O=C(O)c1c(-c2ccc(Cl)cc2)csc1NC(=O)C(Cl)Cc1ccccc1 (stereo not drawn) [D] | ≤ 0.5 µM | ≤ 0.5 µM | –
22 | O=C(Nc1scc(-c2ccc(Br)cc2)c1C(=O)O)OCc1ccccc1 [S] | 1 to 10 µM | – | –
23 | O=C(Nc1scc(-c2cc3cccc(O)c3o2)c1C(=O)O)c1cc2cccc(O)c2o1 [AB] | 1 to 10 µM | ≤ 0.5 µM | –
24 | O=C(Nc1scc(-c2ccc(Cl)cc2)c1C(=O)O)c1cc2sccc2s1 [J] | ≤ 0.5 µM | ≤ 0.5 µM | –
25 | O=C(O)c1c(-c2ccc(Cl)cc2)csc1NC(=O)C1CCc2ccccc2C1 (stereo not drawn) [K] | ≤ 0.5 µM | ≤ 0.5 µM | –
26 | Cc1nnsc1C(=O)Nc1ccc(-n2nc(C(F)(F)F)cc2C(F)(F)F)cc1 [BTP-2] | – | – | inhibition of SOCE [4]: inhibits; inhibition of proliferation [4]: inhibits
27 | O=C(Nc1scc(-c2ccc(Br)cc2)c1C(=O)O)c1nc2c(F)cccc2o1 [C] | ≤ 0.5 µM | ≤ 0.5 µM | –
28 | O=C(Nc1scc(-c2ccc(Br)cc2)c1C(=O)O)c1cn2ccccc2n1 [Z] | 1 to 10 µM | – | –
